Consider seven compounds from patent publication US4510142A, “Derivatives of biphenyl alkyl carboxylates and their use as medicaments” (Pierre Fabre S.A., priority 1981, dated 1985).

For series [1], the system named is carragenine oedema, rat's foot. Description: anti-inflammatory oedema test by injecting carragenine into a rat's foot (Winter, Ribley and Nuss). The format is in vivo. The protocol: Winter, E. Ribley and G. Nuss--Proc. Soc. Exper. Biol. Med., 1962, 111, 544 547.
The products were administered orally in suspension in a Tween-water mixture 2 hours before the experiment. All the administered compounds have a good anti-inflammatory activity. It will particularly be noted that the compound of Example 14 has a DE50 of 3 mg/kg.

In the next series the test system is conventional mice. Description: in vivo. To be noted: p.o.; comparison products. As to the method: (§1) A toxicity study was carried out on conventional mice weighing about 20 grams.
(§2) The compounds corresponding to the general formula I according to the present invention and the pharmaceutically acceptable salts thereof were administered orally. The DL50 was calculated according to the method by L. C. Miller and M. L. Tainter--Proc. Soc. Exper.

The nature of the next series: in vivo. Particulars: mouse, in vivo, po. The protocol:
as §1, §2

Series [2] deals with pain (phenyl benzoquinone injection). Description: pain-killing activity according to Siegmund (phenyl benzoquinone injection). The format is in vivo. Particulars: oral, 30 minutes before injection of phenyl benzoquinone; read-out: DE50 (pain-killing activity). As to the method: The pain-killing activity was studied according to Siegmund--J. Pharm. Exptl. ther., 1957, 119,453.
The compounds according to the present invention were administered orally 30 minutes before the injection of phenyl benzoquinone.

Setting [3] is: Rattus norvegicus, po, comparison products, read-out: DE50 (carragenine).
Setting [4] is: Rattus norvegicus, po, read-out: DE50 (carragenine).

Counter-ions that a name gives are not always drawn. Like-named read-outs stand apart in the source and are kept apart here.

For `COc1ccc2cc([C@H](C)C(=O)O)ccc2c1` [Naproxen], the ED50 in series [1] (setting [3]) came to 5 mg/kg.

For the compound `CC(C)Cc1ccc(C(C)C(=O)O)cc1` (stereo not drawn) [Ibuprofen], the ED50 in series [1] (setting [3]) worked out at 14 mg/kg.

For the compound `COc1ccc2c(c1)c(CC(=O)O)c(C)n2C(=O)c1ccc(Cl)cc1` [Indometacine], in the series on conventional mice, the LD50 (commonly the dose at which mortality reaches 50%) was determined as 20 mg/kg. The ED50 in series [1] (setting [4]) is 4 mg/kg.

On to `CC(=O)Oc1ccccc1C(=O)O` [Aspirin], for which the ED50 in series [1] (setting [4]) amounted to 135 mg/kg.

Phenylbutanone showed an LD50 in the series on conventional mice of 400 mg/kg. Besides, in series [1] (p.o., comparison products), the “DE50 (carragenine)” value stood at 30 mg/kg.

Consider `CC(C(=O)OCC(=O)N1CCC(c2ccccc2)CC1)c1ccc(-c2ccccc2Cl)cc1` (stereo not drawn) [Example 14, 2-(4-phenylpiperidino)-2-oxoethyl 2-(2'-chloro-4-biphenylyl)propionate], for which the LD50 in the series “in vivo” was > 500 mg/kg. Moreover, the ED50 in series [2] was 5 mg/kg; in series [1] (rat, oral suspension in Tween-water, 2 hours before the experiment, read-out: DE50 (anti-inflammatory activity)) it was 3 mg/kg.

With `CC(C(=O)OCC(=O)N1CCN(C)CC1)c1ccc(-c2ccccc2Cl)cc1` (stereo not drawn) [Example 12, 2-(4-methylpiperazino)-2-oxoethyl 2-(2'-chloro-4-biphenylyl)propionate hydrochloride], the LD50 in the series “in vivo” was > 500 mg/kg. Also, the ED50 in series [2] was found to be 7 mg/kg.
